Calls of active or inactive are those of the source.
Assays:
[1] = molecular target: T1, Sentrin-specific protease 7 (Homo sapiens, UniProt Q9BQF6); assay type: functional;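 note: Luminescence-based dose-response confirmation of ultra-high-throughput screening hits, measuring inhibition of SENP7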
T1 sequence (Q9BQF6 whole entry): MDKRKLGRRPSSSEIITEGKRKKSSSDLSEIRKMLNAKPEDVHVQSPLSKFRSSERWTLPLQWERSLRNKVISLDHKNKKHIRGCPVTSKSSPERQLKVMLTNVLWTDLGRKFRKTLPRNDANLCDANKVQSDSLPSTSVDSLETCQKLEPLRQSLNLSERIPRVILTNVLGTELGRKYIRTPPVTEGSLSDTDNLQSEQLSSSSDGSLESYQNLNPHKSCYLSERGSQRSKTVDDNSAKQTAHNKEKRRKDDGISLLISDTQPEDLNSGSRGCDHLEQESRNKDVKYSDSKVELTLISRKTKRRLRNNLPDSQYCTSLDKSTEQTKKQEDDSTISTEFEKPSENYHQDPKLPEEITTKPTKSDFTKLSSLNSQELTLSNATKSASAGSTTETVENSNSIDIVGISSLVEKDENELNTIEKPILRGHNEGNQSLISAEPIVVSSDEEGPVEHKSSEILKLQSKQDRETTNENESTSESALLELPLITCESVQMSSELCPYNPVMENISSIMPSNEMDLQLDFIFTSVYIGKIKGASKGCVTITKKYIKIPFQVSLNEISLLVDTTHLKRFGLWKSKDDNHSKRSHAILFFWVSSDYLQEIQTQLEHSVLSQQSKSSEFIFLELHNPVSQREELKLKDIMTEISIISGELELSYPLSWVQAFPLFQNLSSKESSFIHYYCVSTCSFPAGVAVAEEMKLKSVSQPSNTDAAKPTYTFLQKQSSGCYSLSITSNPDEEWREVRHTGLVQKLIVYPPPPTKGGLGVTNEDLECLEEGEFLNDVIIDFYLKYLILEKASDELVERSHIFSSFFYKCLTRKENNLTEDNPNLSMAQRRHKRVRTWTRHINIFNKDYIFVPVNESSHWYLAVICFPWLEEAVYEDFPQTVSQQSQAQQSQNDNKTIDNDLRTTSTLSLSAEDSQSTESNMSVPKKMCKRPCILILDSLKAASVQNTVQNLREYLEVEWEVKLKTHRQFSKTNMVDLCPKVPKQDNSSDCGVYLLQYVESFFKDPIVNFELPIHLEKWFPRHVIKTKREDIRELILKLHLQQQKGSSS

[2] = molecular target: T2, Sentrin-specific protease 6 (Homo sapiens, UniProt Q9GZR1); assay type: functional;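 note: Luminescence-based dose-response confirmatory assay of SENP6 inhibition, following up an ultra-high-throughput screen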
T2 sequence (Q9GZR1 whole entry): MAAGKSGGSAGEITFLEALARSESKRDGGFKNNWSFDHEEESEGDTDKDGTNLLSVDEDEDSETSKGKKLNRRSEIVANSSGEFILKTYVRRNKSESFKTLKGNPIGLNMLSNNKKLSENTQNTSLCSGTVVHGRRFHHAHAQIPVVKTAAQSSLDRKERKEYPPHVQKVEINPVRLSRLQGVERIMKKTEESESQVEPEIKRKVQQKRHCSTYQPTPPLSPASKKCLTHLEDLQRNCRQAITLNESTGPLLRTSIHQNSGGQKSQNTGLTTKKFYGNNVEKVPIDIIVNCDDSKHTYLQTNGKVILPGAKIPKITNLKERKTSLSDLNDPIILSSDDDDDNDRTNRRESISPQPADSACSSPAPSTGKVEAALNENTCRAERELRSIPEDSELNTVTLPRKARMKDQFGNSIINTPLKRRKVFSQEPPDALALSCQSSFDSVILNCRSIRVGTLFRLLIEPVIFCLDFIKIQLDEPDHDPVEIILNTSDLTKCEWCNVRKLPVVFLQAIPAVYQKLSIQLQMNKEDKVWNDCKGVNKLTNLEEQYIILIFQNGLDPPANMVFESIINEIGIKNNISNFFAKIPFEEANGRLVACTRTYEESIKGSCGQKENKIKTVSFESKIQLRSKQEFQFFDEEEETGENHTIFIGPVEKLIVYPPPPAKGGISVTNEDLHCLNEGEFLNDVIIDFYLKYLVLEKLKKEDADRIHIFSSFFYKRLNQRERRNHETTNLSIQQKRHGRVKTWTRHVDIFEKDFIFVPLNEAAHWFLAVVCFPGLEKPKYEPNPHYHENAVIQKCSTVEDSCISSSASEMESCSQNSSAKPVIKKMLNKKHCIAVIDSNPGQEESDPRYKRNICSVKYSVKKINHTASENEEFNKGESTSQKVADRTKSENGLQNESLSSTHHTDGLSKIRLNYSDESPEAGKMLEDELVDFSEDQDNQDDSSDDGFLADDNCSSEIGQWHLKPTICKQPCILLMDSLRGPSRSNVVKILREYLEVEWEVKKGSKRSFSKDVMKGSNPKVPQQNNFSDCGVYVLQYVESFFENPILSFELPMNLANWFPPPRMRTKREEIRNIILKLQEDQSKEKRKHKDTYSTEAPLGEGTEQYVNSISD

[3] = molecular target: T3, Sentrin-specific protease 8 (Homo sapiens, UniProt Q96LD8); assay type: functional;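 note: luminescence read-out of SENP8 inhibition, dose-response confirmation following an ultra-high-throughput screen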
T3 sequence (Q96LD8 whole entry): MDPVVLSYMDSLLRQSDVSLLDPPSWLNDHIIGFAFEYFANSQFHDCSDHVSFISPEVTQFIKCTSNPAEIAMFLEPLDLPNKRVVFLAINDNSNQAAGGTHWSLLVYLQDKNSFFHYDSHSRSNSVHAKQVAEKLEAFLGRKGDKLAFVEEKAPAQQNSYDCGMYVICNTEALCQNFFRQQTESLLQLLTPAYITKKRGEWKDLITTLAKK

Caspase-3 = molecular target: T4, Caspase-3 (Homo sapiens, UniProt P42574); assay type: functional;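 note: Dose-response selectivity test against caspase-3 for candidate inhibitors of sentrin-specific proteases (SENPs)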
T4 sequence (P42574 whole entry): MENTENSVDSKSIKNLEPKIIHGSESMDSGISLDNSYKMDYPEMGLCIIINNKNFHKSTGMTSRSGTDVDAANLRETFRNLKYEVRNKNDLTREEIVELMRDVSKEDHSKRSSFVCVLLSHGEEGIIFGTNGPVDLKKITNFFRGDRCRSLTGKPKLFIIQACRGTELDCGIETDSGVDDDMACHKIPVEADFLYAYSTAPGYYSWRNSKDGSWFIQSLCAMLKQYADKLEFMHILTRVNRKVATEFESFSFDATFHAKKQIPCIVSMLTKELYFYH

Phospholipase A2 = Phospholipase A2 (Homo sapiens, UniProt P04054); assay type: functional;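 note: confirmatory dose-response counterscreen on phospholipase A2, testing hits that came from an ultra-high-throughput screen for ATG4B inhibitors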
Chain of Phospholipase A2 (P04054 whole entry): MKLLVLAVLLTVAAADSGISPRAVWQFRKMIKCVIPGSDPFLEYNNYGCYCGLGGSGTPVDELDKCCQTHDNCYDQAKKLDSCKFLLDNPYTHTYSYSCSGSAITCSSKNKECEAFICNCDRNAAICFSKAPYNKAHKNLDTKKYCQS

Cysteine protease ATG4B = molecular target: T5, Cysteine protease ATG4B (Homo sapiens, UniProt Q9Y4P1); assay type: functional;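 note: Fluorescence-based dose-response confirmation assay measuring inhibition of ATG4B activity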
T5 sequence (Q9Y4P1 whole entry): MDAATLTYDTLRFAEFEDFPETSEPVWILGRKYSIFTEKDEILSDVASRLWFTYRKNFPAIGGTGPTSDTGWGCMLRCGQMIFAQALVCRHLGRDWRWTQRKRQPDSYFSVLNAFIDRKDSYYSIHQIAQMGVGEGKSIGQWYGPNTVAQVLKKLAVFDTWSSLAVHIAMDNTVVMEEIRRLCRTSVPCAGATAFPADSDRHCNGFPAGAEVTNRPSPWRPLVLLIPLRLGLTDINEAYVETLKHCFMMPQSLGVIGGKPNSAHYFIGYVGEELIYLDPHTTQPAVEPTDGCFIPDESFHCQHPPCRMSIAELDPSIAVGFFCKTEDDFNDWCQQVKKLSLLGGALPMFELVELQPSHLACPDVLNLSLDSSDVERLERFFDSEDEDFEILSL

[4] = molecular target: Ras and Rab interactor 1/Tyrosine-protein kinase ABL1 (Homo sapiens, UniProt P00519+Q13671); assay type: functional;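 note: biochemical TR-FRET dose-response test measuring inhibition of binding between Rin1 and Abl proteins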
Chain of Ras and Rab interactor 1/Tyrosine-protein kinase ABL1 (P00519 whole entry): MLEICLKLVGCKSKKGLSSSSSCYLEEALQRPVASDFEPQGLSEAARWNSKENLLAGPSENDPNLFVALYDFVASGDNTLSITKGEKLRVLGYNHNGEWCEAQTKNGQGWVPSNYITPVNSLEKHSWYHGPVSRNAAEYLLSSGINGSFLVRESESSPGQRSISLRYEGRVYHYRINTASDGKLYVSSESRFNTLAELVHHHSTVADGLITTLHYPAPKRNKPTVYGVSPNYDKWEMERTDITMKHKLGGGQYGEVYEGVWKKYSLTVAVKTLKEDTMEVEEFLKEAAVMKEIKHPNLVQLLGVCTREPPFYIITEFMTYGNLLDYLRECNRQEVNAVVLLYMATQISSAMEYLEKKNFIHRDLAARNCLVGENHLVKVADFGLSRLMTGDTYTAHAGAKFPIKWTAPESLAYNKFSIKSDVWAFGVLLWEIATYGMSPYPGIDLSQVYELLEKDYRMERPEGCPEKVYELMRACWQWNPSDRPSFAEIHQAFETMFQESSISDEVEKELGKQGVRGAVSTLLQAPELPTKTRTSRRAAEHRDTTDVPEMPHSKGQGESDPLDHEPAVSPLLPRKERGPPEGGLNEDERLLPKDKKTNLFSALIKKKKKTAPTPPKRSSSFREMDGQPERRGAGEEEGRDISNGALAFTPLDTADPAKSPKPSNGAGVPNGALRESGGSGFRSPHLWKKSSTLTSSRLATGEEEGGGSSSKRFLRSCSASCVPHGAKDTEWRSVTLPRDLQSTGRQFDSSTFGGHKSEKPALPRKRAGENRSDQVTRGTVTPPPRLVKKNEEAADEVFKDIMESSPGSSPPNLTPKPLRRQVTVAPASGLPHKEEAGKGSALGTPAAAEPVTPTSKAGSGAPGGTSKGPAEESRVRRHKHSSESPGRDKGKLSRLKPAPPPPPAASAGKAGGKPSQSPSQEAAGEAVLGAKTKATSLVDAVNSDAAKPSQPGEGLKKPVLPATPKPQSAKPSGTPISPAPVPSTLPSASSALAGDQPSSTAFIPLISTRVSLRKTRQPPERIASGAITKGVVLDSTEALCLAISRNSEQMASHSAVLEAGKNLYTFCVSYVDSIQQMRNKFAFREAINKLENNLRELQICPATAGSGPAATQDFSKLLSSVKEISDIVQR
Chain of Ras and Rab interactor 1/Tyrosine-protein kinase ABL1 (Q13671 whole entry): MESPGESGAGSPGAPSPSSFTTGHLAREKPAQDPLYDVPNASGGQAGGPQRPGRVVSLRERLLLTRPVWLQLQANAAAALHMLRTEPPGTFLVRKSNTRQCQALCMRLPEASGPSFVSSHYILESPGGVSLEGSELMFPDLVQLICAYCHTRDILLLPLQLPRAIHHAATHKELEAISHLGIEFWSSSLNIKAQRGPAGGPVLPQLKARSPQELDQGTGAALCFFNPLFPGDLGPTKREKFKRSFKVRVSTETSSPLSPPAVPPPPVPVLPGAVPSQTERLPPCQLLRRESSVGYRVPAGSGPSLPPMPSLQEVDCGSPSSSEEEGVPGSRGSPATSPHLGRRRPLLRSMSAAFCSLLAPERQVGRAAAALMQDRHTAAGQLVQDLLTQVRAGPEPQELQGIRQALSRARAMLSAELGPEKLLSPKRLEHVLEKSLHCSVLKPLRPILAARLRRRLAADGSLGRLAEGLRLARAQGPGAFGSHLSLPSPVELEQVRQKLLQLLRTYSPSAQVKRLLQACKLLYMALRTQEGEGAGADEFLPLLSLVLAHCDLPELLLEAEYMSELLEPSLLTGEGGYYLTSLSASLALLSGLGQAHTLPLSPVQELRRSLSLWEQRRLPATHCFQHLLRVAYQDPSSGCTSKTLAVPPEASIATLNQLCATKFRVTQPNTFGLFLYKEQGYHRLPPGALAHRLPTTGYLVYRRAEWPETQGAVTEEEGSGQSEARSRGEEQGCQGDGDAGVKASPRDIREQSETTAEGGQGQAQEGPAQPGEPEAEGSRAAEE

[5] = molecular target: T6, Heat shock factor protein 1 (Mus musculus, UniProt P38532); test: HSF1 potentiators in luciferase reporter cells, confirmation, cell-based, NIH3T3, luminescence, dose retest (AID 435004); assay type: functional;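 note: stress induced by proteasome inhibitor MG132 added 30 min after compound; luciferase reporter driven by HSF1 response element in NIH3T3 cells; actives raise luminescence as potentiators of the MG132 stress response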
T6 sequence (P38532 whole entry): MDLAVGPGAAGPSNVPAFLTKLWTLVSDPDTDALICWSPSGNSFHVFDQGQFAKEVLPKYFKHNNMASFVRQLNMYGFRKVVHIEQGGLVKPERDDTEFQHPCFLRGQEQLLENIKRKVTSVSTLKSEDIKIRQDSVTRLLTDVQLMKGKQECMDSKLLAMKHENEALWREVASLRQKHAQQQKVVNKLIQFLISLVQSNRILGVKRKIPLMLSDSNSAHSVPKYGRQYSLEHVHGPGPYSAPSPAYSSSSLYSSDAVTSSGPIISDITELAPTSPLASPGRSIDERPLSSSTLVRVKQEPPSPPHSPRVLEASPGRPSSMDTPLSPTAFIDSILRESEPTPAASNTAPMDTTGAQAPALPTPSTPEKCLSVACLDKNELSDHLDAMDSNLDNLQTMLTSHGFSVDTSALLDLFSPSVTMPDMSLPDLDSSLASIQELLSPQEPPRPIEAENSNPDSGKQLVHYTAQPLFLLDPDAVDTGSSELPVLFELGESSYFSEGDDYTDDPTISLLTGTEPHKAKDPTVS

[6] = AlphaScreen signal interference compounds, dose response, artefact control for ARNT-TACC3 interaction inhibitor project, biochemical, luminescence, cherry-pick (AID 651705); assay type: functional;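 note: AlphaScreen bead proximity signal that flags compounds interfering with the detection technology; potency reflects signal decrease which marks the compound as an assay artifact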
Nonstructural protein 1 = Nonstructural protein 1 (Influenza A virus, UniProt Q194T2); assay type: functional, Influenza A virus (A/California/07/2009(H1N1))
Chain of Nonstructural protein 1 (Q194T2 whole entry): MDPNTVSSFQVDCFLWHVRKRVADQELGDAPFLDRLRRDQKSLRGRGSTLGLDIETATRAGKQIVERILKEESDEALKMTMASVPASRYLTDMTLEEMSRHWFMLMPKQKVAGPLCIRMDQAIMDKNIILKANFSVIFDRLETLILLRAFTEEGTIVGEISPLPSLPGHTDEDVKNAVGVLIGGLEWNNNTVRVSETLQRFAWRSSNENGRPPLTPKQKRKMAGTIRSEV

[7] = molecular target: T7, Rac GTPase-activating protein 1 (Homo sapiens, UniProt Q9H0H5); test: MgcRacGAP GTPase-activating activity inhibitors, confirmation, biochemical, ADP Hunter fluorescence, primary and confirmatory (AID 624330); assay type: functional
T7 sequence (Q9H0H5 whole entry): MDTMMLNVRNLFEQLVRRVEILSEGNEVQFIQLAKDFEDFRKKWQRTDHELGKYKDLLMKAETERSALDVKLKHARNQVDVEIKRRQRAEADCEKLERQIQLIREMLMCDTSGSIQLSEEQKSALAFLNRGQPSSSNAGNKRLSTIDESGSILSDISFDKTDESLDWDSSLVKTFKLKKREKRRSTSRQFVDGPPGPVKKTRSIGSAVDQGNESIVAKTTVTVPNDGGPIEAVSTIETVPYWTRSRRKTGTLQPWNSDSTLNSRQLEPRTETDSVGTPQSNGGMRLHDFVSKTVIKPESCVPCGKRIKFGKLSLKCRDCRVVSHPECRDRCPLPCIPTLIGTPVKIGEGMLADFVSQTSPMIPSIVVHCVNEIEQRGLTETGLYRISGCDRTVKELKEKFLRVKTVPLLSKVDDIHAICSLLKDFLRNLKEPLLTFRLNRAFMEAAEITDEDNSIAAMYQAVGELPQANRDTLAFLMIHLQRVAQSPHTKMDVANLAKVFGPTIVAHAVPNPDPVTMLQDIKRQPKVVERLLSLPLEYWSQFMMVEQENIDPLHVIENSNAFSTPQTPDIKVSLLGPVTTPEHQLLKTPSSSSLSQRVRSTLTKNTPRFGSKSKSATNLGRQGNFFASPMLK

[8] = miR-122 activators in hepatoma reporter cells, dose response, cell-based, Huh7 psiCHECK-miR122, Renilla luciferase, cherry-picked (AID 651956); assay type: functional;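 note: huh7 hepatoma cells stably carrying a psiCHECK-2 miR-122 sensor plasmid; renilla luciferase signal reporting endogenous miR-122 activity after 48 h compound exposure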

## Oc1ccc(Cl)cc1N=Nc1ccccc1
[1]
  IC50: 7.8 µM (active)
[2]
  IC50: 35.4 µM (active)
[3]
  IC50: > 100 µM (inactive)
Caspase-3
  IC50: 23.6 µM (active)

## COc1ccc(Br)cc1CNC(=O)C1CCN(S(=O)(=O)N2CCC(C)CC2)CC1
Phospholipase A2
  IC50: 6.6 µM (active)
Cysteine protease ATG4B
  IC50: 9.71 µM (active)

## O=C1CNC(=O)/C1=C/NC12CC3CC(CC(C3)C1)C2
[4]
  IC50: 19.4 µM (inactive)

## Oc1nc(SCc2ccc(Cl)cc2)nc2ccsc12
[1]
  IC50: 8.53 µM (active)
[2]
  IC50: 6.14 µM (active)
[5]
  EC50: 21.9 µM (active)
[3]
  IC50: 68.7 µM (active)
Caspase-3
  IC50: 15.2 µM (active)

## O=C(Nc1ccn(CCCN2CCN(Cc3ccc(F)cc3)CC2)c(=O)n1)OCc1ccccc1
[4]
  IC50: 20 µM (inactive)

## CN1CCC(=O)N(CCOc2ccccc2)CC1
[6]
  AC50: 77.4 µM (active)
Nonstructural protein 1
  IC50: 18.9 µM (active)

## CC(=O)Nc1ccc(Oc2nc(-c3ccccn3)nc3ccccc23)cc1
[6]
  AC50: 106 µM (active)
[7]
  IC50: 43.5 µM (active)

## CC[C@]12c3[nH]c4ccc(OC)cc4c3CCN1C(=O)C(CC(=O)NCCCN(C)C)C[C@@H]2C(=O)N1CCN(C(=O)c2ccco2)CC1 (stereo partly specified)
[4]
  IC50: 35.3 µM (inactive)

## COc1ccc(CCNC(=O)c2c(C)cc(=O)oc2C)cc1OC
[8]
  AC50: 57.6 µM (active)

## Cc1ccc(-n2cc3ccc([N+](=O)[O-])cc3n2)cc1
[1]
  IC50: 12.5 µM (active)
[2]
  IC50: 17.2 µM (active)
[5]
  EC50: > 260 µM (inconclusive)
[3]
  IC50: 59.9 µM (active)
Caspase-3
  IC50: 34.7 µM (active)

## CC(C)(C)C(=O)Nc1ccccc1C(=O)NCCCn1ccnc1
[6]
  AC50: 131 µM (active)

## CNC[C@@H]1Oc2cc(C#CC3CCCC3)ccc2S(=O)(=O)N([C@@H](C)CO)C[C@@H]1C
[8]
  AC50: 4.31 µM (active)
